Assay results published in US20110287953A1, “METHOD FOR DISCOVERING POTENTIAL DRUGS” (priority 2010, published 2011).
Where two headings read alike, the source gives them in different places.

Columns and labels:
HCC cell lines = experiment: Drug efficacy label of top 10 CMap drugs (MTT or clonogenic); type: cell-based; settings: Table 2-3; labels (1) and (4); gene set in which the drug ranked top 10;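 note: label 1 means effective by MTT or clonogenic assay and 4 means ineffective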
Protocol: (§1) The HCC cell lines, Mahlavu, PLC5, HepG2, and Huh7, were cultured in Dulbecco's Modified Eagle Medium (DMEM; Seromed, Berlin, Germany) supplemented with 10% heat-inactivated fetal bovine serum, 100 μg/ml streptomycin, 100 μg/ml penicillin, and 2 mM L-glutamine in a humidified atmosphere containing 5% CO2 at 37° C. […] The cells were exposed to different concentrations of the small molecules for 72 hours. Control cells were incubated in the absence of small molecules. Afterwards, the cells were incubated with medium containing MTT for 2 hours. […] For the clonogenic assay, Huh7 cells were seeded out in appropriate dilutions in a 6-well plate and treated with selected small molecules at various concentrations for 15 days. Colonies were fixed with glutaraldehyde (6.0% v/v), stained with crystal violet (0.5% w/v), and counted.

Huh7 cells = experiment: Clonogenic assay; type: cell-based; settings: colony number at 10 μM; for inhibition at 10 µM: Homo sapiens, Huh-7, 360 h
Protocol: The HCC cell lines, Mahlavu, PLC5, HepG2, and Huh7, were cultured in Dulbecco's Modified Eagle Medium (DMEM; Seromed, Berlin, Germany) supplemented with 10% heat-inactivated fetal bovine serum, 100 μg/ml streptomycin, 100 μg/ml penicillin, and 2 mM L-glutamine in a humidified atmosphere containing 5% CO2 at 37° C. The viability of the exposed cells was determined using the MTT cell viability assay kit (Sigma-Aldrich, St. Louis, USA), according to the manufacturer's instructions. […] The cells were exposed to different concentrations of the small molecules for 72 hours. Control cells were incubated in the absence of small molecules. Afterwards, the cells were incubated with medium containing MTT for 2 hours. The optical density at 450 nm was measured using a microplate reader (Spectral Max250). For the clonogenic assay, Huh7 cells were seeded out in appropriate dilutions in a 6-well plate and treated with selected small molecules at various concentrations for 15 days. Colonies were fixed with glutaraldehyde (6.0% v/v), stained with crystal violet (0.5% w/v), and counted.

[1] = test system: HCC cell lines, Mahlavu, PLC5, HepG2, and Huh7; experiment: MTT cell viability test in HCC cell lines
Protocol: as §1

[2] = 72 h, Table 2-2, HCC cell lines, MTT
[3] = 72 h, Table 3-1, HCC cell lines, MTT
[4] = Table 3-1, HCC cell lines, 72 hours, MTT

Nc1nc2nn[nH]c2c(=O)[nH]1 [8-azaguanine]
drug efficacy label (HCC cell lines): 8-azaguanine (4) | Clonogenic assay (Huh7 cells; Table 2-2, 15 days): Ineffective | Clonogenic assay (Huh7 cells; Table 3-1, 15 days): Ineffective | IC50 [1, 2]: > 10 µM | IC50 [1, 3]: > 10 µM

COc1ccc2c(OC)c3ccoc3nc2c1OC [skimmianine]
inhibition at 10 µM (Huh7 cells; Table 3-1, 15 days): > 50% | IC50 [1, 3]: > 10 µM

O=C1Nc2ccc3ncsc3c2/C1=C/Nc1ccc(S(=O)(=O)Nc2ccccn2)cc1 [GW-8510]
IC50 [1, 4]: 5 to 10 µM

Cc1ccc(S(=O)(=O)NC(=O)NN2CC3CCCC3C2)cc1 (centres unmarked) [gliclazide]
Clonogenic assay (Huh7 cells; Table 3-1, 15 days): Ineffective | IC50 [1, 3]: > 10 µM

C[C@@H]1C(=O)O[C@H]2C[C@@]34[C@H]5C[C@@H](C(C)(C)C)[C@]36[C@@H](OC(=O)[C@@H]6O)O[C@@]4(C(=O)O5)[C@]21O [ginkgolide A]
IC50 [1, 4]: > 10 µM

COc1ccc([C@@H]2Sc3ccccc3N(CCN(C)C)C(=O)[C@@H]2OC(C)=O)cc1 [diltiazem]
IC50 [1, 3]: > 10 µM

C[C@]12CC[C@@H]3c4ccc(O)cc4CC[C@H]3[C@@H]1CC[C@H]2O [Alpha-estradiol]
drug efficacy label (HCC cell lines): Alpha-estradiol (4) | Clonogenic assay (Huh7 cells; Table 2-2, 15 days): Ineffective | IC50 [1, 2]: > 10 µM

CSc1ccc2c(c1)N(CCC1CCCCN1C)c1ccccc1S2 (centres unmarked) [thioridazine]
drug efficacy label (HCC cell lines): thioridazine (1)

CC1CC(OC(=O)C(O)c2ccccc2)CC(C)(C)N1C (centres unmarked) [eucatropine]
IC50 [1, 3]: > 10 µM

O=C(CCCN1CCC2(CC1)C(=O)NCN2c1ccccc1)c1ccc(F)cc1 [spiperone]
inhibition at 10 µM (Huh7 cells; Table 3-1, 15 days): > 50%

O=C1c2c(O)ccc(O)c2C(=O)c2c(NCCNCCO)ccc(NCCNCCO)c21 [mitoxantrone]
IC50 [1, 3]: 0.1 to 1 µM

tyloxapol
IC50 [1, 4]: 5 to 10 µM

COc1c2ccoc2nc2c(OC)c(OCC(O)C(C)(C)O)ccc12 (centres unmarked) [evoxine]
Clonogenic assay (Huh7 cells; Table 3-1, 15 days): Ineffective | IC50 [1, 3]: > 10 µM

Clc1ccc(CSC(Cn2ccnc2)c2ccc(Cl)cc2Cl)cc1 (centres unmarked) [sulconazole]
inhibition at 10 µM (Huh7 cells; Table 3-1, 15 days): > 50% | Clonogenic assay (Huh7 cells; Table 2-2, 15 days): Effective (Effectiveness in clonogenic assay is defined as reducing more than 50% colony number at 10 μM)

C=CCNC1=C2C[C@@H](C)C[C@H](OC)[C@H](O)[C@@H](C)/C=C(\C)[C@H](OC(N)=O)[C@@H](OC)/C=C\C=C(/C)C(=O)NC(=CC1=O)C2=O [tanespimycin]
drug efficacy label (HCC cell lines): tanespimycin (1) | cell viability / cytotoxicity in HCC cell lines ([1]; 0.1, 1 and 10 μM, 72 hours, MTT): exhibited cytotoxicity effect | IC50 [1, 2]: < 0.1 µM | IC50 [1, 3]: < 0.1 µM | IC50 ([1]; 72 h, HCC cell lines): < 10 µM

O=C(O)CNC(=O)C(CS)Cc1ccccc1 (racemic) [DL-thiorphan]
Clonogenic assay (Huh7 cells; Table 3-1, 15 days): Ineffective | IC50 [1, 4]: > 10 µM

Cn1c([N+](=O)[O-])cnc1COC(N)=O [ronidazole]
IC50 [1, 3]: > 10 µM

COc1cc(/C=C/C(=O)N2CCC=CC2=O)cc(OC)c1OC [piperlongumine]
IC50 [1]: 1 to 5 µM

C#C[C@]1(O)CC[C@H]2[C@@H]3CCC4=CC(=O)CC[C@@H]4[C@H]3CC[C@@]21CC [levonorgestrel]
IC50 [1, 3]: > 10 µM

Oc1ccc(C=Cc2cc(O)cc(O)c2)cc1 [resveratrol]
drug efficacy label (HCC cell lines): resveratrol (4)

CC(=O)Oc1cc(C(F)(F)F)ccc1C(=O)O [triflusal]
Clonogenic assay (Huh7 cells; Table 2-2, 15 days): Ineffective | Clonogenic assay (Huh7 cells; Table 3-1, 15 days): Ineffective | IC50 [1, 2]: > 10 µM | IC50 [1, 3]: > 10 µM

Cc1c2ccncc2c(C)c2c1[nH]c1ccccc12 [ellipticine]
IC50 [1, 3]: 0.1 to 1 µM

CC1=C(CO)C(=O)O[C@@H]([C@@H](C)[C@H]2CC[C@H]3[C@@H]4C[C@H]5O[C@]56[C@@H](O)C=CC(=O)[C@]6(C)[C@H]4CC[C@]23C)C1 [withaferin A]
IC50 [1, 4]: 0.1 to 1 µM

N[C@@H]1CON=C1O [cycloserine]
Clonogenic assay (Huh7 cells; Table 3-1, 15 days): Ineffective | IC50 [1, 3]: > 10 µM

COc1ccccc1N1CCN(CCCCNC(=O)c2ccc3ccccc3c2)CC1.Cl.Cl [DO 897/99]
Clonogenic assay (Huh7 cells; Table 3-1, 15 days): Effective (Effectiveness in clonogenic assay is defined as reducing more than 50% colony number at 10 μM) | IC50 [1, 4]: > 10 µM

CN(C)C/C=C(/c1ccc(Br)cc1)c1cccnc1 [zimeldine]
Clonogenic assay (Huh7 cells; Table 3-1, 15 days): Ineffective | IC50 [1, 3]: > 10 µM

C[n+]1cc2c3c(ccc2c2ccc4cc5c(cc4c21)OCO5)OCO3 [sanguinarine]
IC50 ([1]; 72 h): 0.1 to 1 µM

C=C(C)[C@H]1Cc2c(ccc3c2O[C@@H]2COc4cc(OC)c(OC)cc4[C@@H]2C3=O)O1 [rotenone]
IC50 [1, 3]: 0.1 to 1 µM

C#CCN(C)Cc1ccccc1 [pargyline]
IC50 [1, 3]: > 10 µM
